Experimental data: a melting point compilation (Tetko et al.; mined from patent text by program, amines drawn as free bases though some values may be those of a salt)

Point of comparison: `Clc1ccc(C(c2ccccc2)(c2ncc[nH]2)c2ncc[nH]2)cc1`, melting point 140 °C. Against it:
- COC(=O)c1cc(-c2nc(COc3ccc(CCl)cc3OC)c(C)o2)ccc1OS(C)(=O)=O — higher, 146 to 147 °C
- CCC[C@H](NC(=O)[C@H](C)N)C(=O)N[C@@H](C)P(=O)(O)O — higher, 268 to 270 °C
- COc1ccc(CCCCOCc2cccc(/C=C/c3cccc(NC(=O)CCC(C)(C)C(=O)O)c3)n2)cc1 — higher, 141 to 142 °C
- Cc1c(Sc2ccc(Cl)cc2)nn(-c2ccc(Oc3ccccc3)cc2)c(=O)c1C#N — higher, 164 °C
- OCC(Oc1ccc(-c2ccccc2)cc1)c1ccccc1 (centres undefined) — lower, 126 to 127 °C
- CC(C)(C)c1cc(OCc2cccc(C(=O)O)c2)cc(C(C)(C)C)c1 — higher, 167 to 169 °C
- Cc1cc(-n2cnnn2)cc(I)c1N — higher, 172 to 175 °C
- COc1cc(F)ccc1Oc1c(Cl)ncnc1NS(=O)(=O)c1ccc(C(C)(C)C)cc1 — higher, 146 to 147 °C
- CCC(C)c1ccccc1N (centres undefined) — lower, 89 to 91 °C
- Clc1ccc(N2CCN(Cc3c[nH]c4ncccc34)CC2)cc1 — higher, 226 to 227 °C
- CCOC(=O)C1=C(COCc2nnnn2CCN2CCN(C(=O)NC)CC2)NC(C)=C(C(=O)OC)C1c1cccc(Cl)c1Cl (centres undefined) — lower, 95 to 96 °C
- Cc1c(NC(=O)c2ccc(OC[C@@H]3CCCO3)cc2)ccc2cc(CNC3CCCC3)[nH]c12 — higher, 159 to 163 °C
- N#Cc1cc(C(=O)Nc2ccc(Cl)cn2)nc(C(F)(F)F)c1 — higher, 208 °C
- Cn1ncc(C(=O)N[C@H]2CCOC2)c1C(=O)Nc1ccn2nc(-c3ccccc3)nc2c1 — higher, > 250 °C
- CCOC(=O)/C=C/c1cc(-n2cnnn2)cc(C)c1N — higher, 210 to 211 °C
- COc1ccc2oc(=O)c(S(=O)(=O)Nc3ccc(Br)cc3)cc2c1 — higher, 166 to 168 °C
- CC(C)(C)OC(=O)N1CCC(CN2C(=O)C3(COc4cc5c(cc43)CCO5)c3ccccc32)CC1 (centres undefined) — lower, 96 to 98 °C
- CNC(=O)c1cccc(Nc2nc(Nc3ccc4c(c3)CCCC(=O)N4C)ncc2Cl)c1 — higher, 215 to 217 °C
- O=C1CCCc2ccn(-c3ccccc3)c21 — lower, 66 to 68 °C
- Cc1c(-c2cc(N(C)C)ncn2)ssc1=S — lower, 137 °C
- CCC12CCC(NC(=O)C=CC(=O)OC)C3Oc4c(O)ccc5c4C31CCN(CC1CC1)C2C5 (centres undefined) — higher, 233 to 236 °C
- Cc1nc2scc(-c3ccccc3)n2c(=O)c1CCN1CCC(c2noc3cc(F)ccc23)CC1 — lower, 76 to 91 °C
- CC(=NOCCOc1ccc(C[C@H](Oc2ccc(C)cc2)C(=O)O)cc1)c1ccc(-c2ccccc2)cc1 — lower, 128 to 130 °C
- Fc1cc2c(Nc3ccc(F)c(Br)c3)ncnc2cn1 — higher, 269 to 270 °C
- CCn1cc(C(=O)O)c(=O)c2cc(Cl)c(N3CCN(C)CC3)cc21 — higher, 260 °C
- Cc1ccc(N(C=C(C#N)C#N)N=C(C#N)C#N)cc1 — higher, 168 to 169 °C
- O=c1c(Cl)c(Cl)cnn1-c1cc([N+](=O)[O-])c(Cl)cc1F — higher, 168 °C
- O=C(CCC1CCN(Cc2cccc(F)c2)CC1)c1cc2c3c(c1)CCN3C(=O)CC2 — lower, 111 to 112 °C
- COc1ccc(NC(=O)c2cnc3ccccc3c2O)cc1 — higher, > 260 °C
- O=C(O)COCCCCSc1cnc(-c2ccccc2)c(-c2ccccc2)n1 — lower, 86 to 88 °C
- CCCCCCCCCCCCCCOC(=O)c1ccc(Cl)c(NC(=O)C(C(=O)c2ccccc2)N2C(=O)c3ccccc3C2=O)c1 (centres undefined) — lower, 81 to 82 °C
- O=C(O)Cc1cc(F)ccc1Sc1ccccc1 — lower, 80 to 83 °C
- CCOc1ccc(NC=C(C#N)C(=O)Nc2cc(OC)c(Cl)cc2Cl)cc1Br — higher, > 250 °C
- O=S=NNc1cccc(C(F)(F)F)c1 — lower, 100 °C
- CC(=O)Nc1cc(O)c(C(=O)NC2CCN(Cc3ccccc3)CC2)cc1[N+](=O)[O-] — higher, 220 to 222 °C
- Cc1ccc(-c2ncc3c(n2)CCCCC3)nc1-c1ccncc1 — higher, 198 to 200 °C
- CC(C)(CCl)C(=O)N(O)c1ccccc1 — lower, 120 to 121 °C
- O=c1c2cc(O)ccc2[nH]c2c([N+](=O)[O-])ccc(Cl)c12 — higher, > 325 °C
- CCOC(=O)c1cn2c(n1)CN(C(C)=O)CC2 — lower, 97 °C
- O=C(Nc1ccc(C(=O)O)cc1)OCc1ccccc1 — higher, > 235 °C
- Oc1cccc(OCCCCOc2cccc(O)c2)c1 — lower, 103 to 106 °C
- CN1C(=O)C(=NC(Cl)=C(Cl)Cl)N(c2ccc(Cl)cc2)C1=O — lower, 108 to 110 °C
- O=C1CCC(N2C=Nc3ccccc3C2)C(=O)N1 (centres undefined) — higher, 258 °C
- Cc1ccc(-c2nn(-c3cccc4ccccc34)c(N)c2C(N)=O)cc1 — higher, 195 °C
- CCN(CC)CCOc1ccc(Nc2ncc3c(n2)N(CC)C(=O)N(c2c(Cl)cccc2Cl)C3)cc1 — lower, 85 °C
- COc1ccc(/C=C(\C#N)c2ccccc2N)cc1OC1CCCC1 — lower, 81 to 82.5 °C
- C=C1[C@@H](NC(=O)C(F)(F)F)CC(O)O[C@H]1C (some centres undefined) — higher, 168 to 170 °C
- CCOC(=O)Nc1nc(C)c(-c2nc3ccccc3c(=O)n2-c2ccccc2Cl)s1 — higher, 246 to 247 °C
- COc1cc(Nc2c(C#N)cnc3cc(-c4ccc(CNCCS(C)(=O)=O)cc4)ccc23)c(Cl)cc1Cl — higher, 245 to 246 °C
- Cc1ccc(-c2nc(C)c(-c3ccnc(Nc4ccc(N5CCOCC5)cc4)n3)s2)cn1 — higher, 244 to 245 °C
- CN1CCCN(Cc2c(Cl)ccc(C(=O)C3=C(Sc4ccccc4)CCCC3=O)c2Cl)C1=O — the same, 140 °C
- O=C(C=CCC(Nc1cc(Cl)cc(Cl)c1I)C(=O)OCc1ccccc1)Nc1ccccc1 (centres undefined) — higher, 146 to 148 °C
- CN1CCN(C2=Nc3cc(F)ccc3Nc3ccsc32)CC1 — higher, 206 to 208 °C
- Cc1ccc2c(c1)S(=O)(=O)CC(COC(=O)Nc1ccccc1)(COC(=O)Nc1ccccc1)C2=O — lower, 85 to 95 °C
- O=c1ncc(Cl)cn1COc1ccccc1 — higher, 146 °C
- O=c1c2ccc(Cl)cc2[nH]c2c(O)nn(C3CCCc4ccccc43)c(=O)c12 (racemic) — higher, > 300 °C
- O=C1N=CN(c2ccc(Cl)cc2)C12CCN(Cc1ccccc1)CC2 — higher, 217 to 219 °C
- COc1ccc(/C=C/C(=O)Nc2ccc(Br)cc2C(=O)O)cc1OC — higher, 210 to 213 °C
- Nc1ccc(Cl)c(C(=O)c2sc(Nc3ccc4nc[nH]c4c3)nc2N)c1Cl — higher, 235 to 237 °C
- Nc1ncc(-c2ccc(=O)[nH]n2)c(-c2cccnc2)n1 — higher, 256 °C
- O=C(Nc1n[nH]c(=S)s1)NC(Cc1ccccc1)C(=O)NCc1ccccn1 (centres undefined) — higher, 159 to 161 °C
- COC(=O)/C=C/c1cc(C)cc(NC(C)=O)n1 — lower, 139 °C
- Cc1cc(N)ccc1NC(=O)c1ccc(N)cc1 — lower, 111 to 115 °C
- CC(=O)Oc1ccc(NCc2c(F)c(F)c(C(F)(F)F)c(F)c2F)cc1C(=O)O — higher, 185 to 187 °C
- O=CNc1cc([N+](=O)[O-])cc([N+](=O)[O-])c1 — lower, 121 to 123 °C
- Cc1nc2ccc3c(c2o1)OC(CN1CCC2(CC1)C(=O)NCN2c1ccccc1)CO3 (centres undefined) — higher, 240 °C
- Cc1nccn1-c1nc(-c2ccc(Cl)cc2)c(CCCC(=O)NCCCl)o1 — lower, 131 to 132 °C
- CCCCSc1cc(SCCCC)c2ccc3c(SCCCC)cc(SCCCC)c4ccc1c2c43 — lower, 91 to 92 °C
- CCCCCNC(=O)N(C)c1ncc(-c2ccc(C[C@H](OCC)C(=O)O)cc2)s1 — lower, 114 °C
- O=C1/C(=C/c2cccs2)CNc2cc(OCCn3ccnc3)ccc21 — higher, 211 to 213 °C
- CN(C)c1ccc2ncnc(Cl)c2c1 — lower, 126 to 128 °C
- Nc1ccc(CCCCOCCCCCCNCC(O)c2cc(O)cc(O)c2)cc1 (centres undefined) — higher, 157 to 159 °C
- N#CCNC(=O)C1(NC(=O)c2ccc(N3CCN(Cc4ccccc4)CC3)cc2)CCCCC1 — higher, 210 to 212 °C
- CC(C)C(=O)Oc1ccc2c(c1)OCN(CCO[N+](=O)[O-])C2=O — lower, 70 to 71 °C
- CC(C)(C)OC(=O)N[C@@H](Cc1cc(F)cc(F)c1)C(=O)CCl — lower, 139 °C
- O=c1cc(COC2CCCCO2)occ1OCCCCBr (centres undefined) — lower, 71.5 °C
- N#CCCN(CCC#N)c1ccccc1C#N — lower, 79 to 82 °C
- CSc1nc(=O)c2cccc3c2n1-c1cc(C(F)(F)F)ccc1S3 — higher, 229 to 231 °C
- CC(C)Sc1nc(-n2ccnc2)c(I)c(C(F)(F)F)n1 — lower, 118 to 120 °C
- CN(C)S(=O)(=O)c1cccc(S(N)(=O)=O)c1 — lower, 101 to 106 °C
- CC=Cc1cccc2c(=O)c(C)c(-c3ccc(C(C)C)cc3)oc12 — lower, 105 to 107 °C
- CC(=O)N1CC(Cc2ccccc2)OC1=O (centres undefined) — lower, 90 °C
- C=CCOC(=O)c1ccc(-c2ccc3cc(OCCCCC(=O)OCC)c(C45CC6CC(CC(C6)C4)C5)cc3c2)cc1 — lower, 117 to 118 °C
- CC1(C)C2CC[C@]1(C)C(=O)C(C(=O)Nc1ccc([N+](=O)[O-])cc1)C2=O (some centres undefined) — higher, 168 to 170 °C
- O=C(Nc1ccc(CCCc2nnn[nH]2)cc1)C(F)(F)C(F)(F)C(F)(F)F — higher, 144 to 145 °C
- COc1ccc(-c2cc(-c3ccccc3)[nH]c2C(=O)NCc2ccc(C(=O)Nc3ncccn3)cc2)cc1 — higher, 190 to 191 °C
- O=C(N1CCOc2ccccc21)C(F)(F)F — lower, 58 to 60 °C
- Cc1ccc(-c2nc(CCl)co2)o1 — lower, 93 to 94 °C
- COC(=O)c1ccc(-c2nc(-c3ccc(C(F)(F)F)cc3)no2)c(NC(=O)C(F)(F)F)c1 — higher, 188 to 189 °C
- O=C1NC(=O)C(CCOc2ccccc2)S1 (centres undefined) — lower, 81 to 83 °C
- CS(=O)(=O)Nc1ccc(-c2ccc(S(=O)(=O)n3ccc(C=CC(=O)NO)c3)cc2)cc1 — higher, 160 to 167 °C
- COc1cc2c(cc1O)CCN(Cc1cccc(OC)c1OC)C2 — lower, 101 to 102 °C
- CCOC(=O)N1CCc2nc3ccccc3c(O)c2CC1 — higher, 252 °C
- O=C1c2ccccc2-c2cc(O)cc3ccc(O)c1c23 — higher, 280 °C
- O=C(NCCNCCNC(=O)c1cccc2cc3ccccc3nc12)c1cccc2cc3ccccc3nc12 — higher, 182 to 184 °C
- CC(C)(c1ccccc1)n1nnc(-c2ccccc2-c2ccc(CBr)cc2)n1 — lower, 108 to 109 °C
- Fc1ccc(Nc2ccnc3cc(Cl)ccc23)cc1 — higher, 214 to 216 °C
- NC(=O)c1c(Cl)c(-c2ccccc2)n2c1CN(S(=O)(=O)c1cccs1)CC2 — higher, 240 to 242 °C
